# Results as given in publication PMC10924921, “Mi-2β promotes immune evasion in melanoma by activating EZH2 methylation” (Nature Communications, 2024).
# Entries after “also recorded” stand apart in the source; their conditions may differ.
# Tests used:
# [1] = system: secreted Cxcl9 and Cxcl10, B16F10 cells; test: ELISA of secreted Cxcl9 and Cxcl10 in stimulated cells; type: cell-based, mouse; settings: MS177 (10 μM), GSK126 (2μM) or Z36-MP5 (10 μM)
# Experimental: B16F10 cells (1 × 10^6) with or without Mi-2β knockdown were seeded in 6-well plates in complete growth medium. Cell medium was changed to serum-free medium, before treatment with IFN-γ at indicated concentration for 24 h. The secreted chemokines were measured by mouse Cxcl9 ELISA kit (ab203364) and mouse Cxcl10 ELISA Kit (ab214563), according to the manufacturer’s protocols. Isolated graft tumors were prepared and minced with blades, then tumor tissues were cultured in PBS (250 mg/500 µl) for 4 h at 37 °C. The secreted amount of the chemokines in the culture were measured by mouse Cxcl9 ELISA kit (ab203364) and mouse Cxcl10 ELISA Kit (ab214563), according to the manufacturer’s protocols.
# Supplementary Figure 10. Comparison of tumor growth inhibition effects between Z36-MP5 and EZH2 inhibitors. a Mice (n=8) bearing B16F10 cells were treated with control IgG or anti-PD-1 antibody in combination with Z36-MP5 or GSK126, as indicated. A mouse survival curve is shown, with log-rank test for mouse survival P value. b,c The epigenetic modifications of H3 (H3K27ac, H3K27me1 and H3K27me3) were measured in B16F10 cells stimulated with GSK126 or Z36-MP5 as indicated (n = 3, independent experiments). d The amount of secreted Cxcl9 and Cxcl10 was measured by ELISA in […]
# represent mean ± SD. The unpaired, two tailed t-test. Source data are provided as a Source Data file. […]
# B16F10 cell graft = test: Syngeneic melanoma graft mouse model, tumor growth and survival
# Experimental: Mi-2β knockdown or Scramble B16F10 cells (1.5 × 10^5) were mixed with BD matrigel (Matrix Growth Factor Reduced) (BD, 354230) in 100 μl PBS, and then subcutaneously injected into the right flanks of C57BL/6 mice of 8–10 week old (from the Jackson Laboratory, 000664). Tumor growth was measured with calipers, and size was expressed in cubic centimeters every 3 days. For antibody treatment, control IgG (10 mg/kg) or anti-PD-1 (RMP1-14, BioXCell, 10 mg/kg) was injected intraperitoneally (i.p.) on day 6, 9, 12, 15 and 18 after tumor cell inoculation. For tumor growth curve, grafts were measured with calipers and established (0.5*length × width^2) every three days. For survival tests, mice were euthanized when the tumor size exceeded 1 cm^3. […] The mice were euthanized after indicated days or when the allowable endpoint size (1 cm^3) was reached.
# [2] = Estimated blood concentration in mice; type: in vivo; settings: intraperitoneal 30 mg per kg, extrapolated from rat
# Text: FLT3 kinase inhibitor for acute myeloid leukemia with FLT3 mutations. J Med Chem, 61, 3855-3869 (2018); Lexian Tong et al., Identification of 2-aminopyrimidine derivatives as FLT3 kinase inhibitors with high selectivity over c-KIT. J Med Chem, 65, 3229-3248 (2022)). In these cases, the cellular form of the FLT3-WT or FLT3-ITD mutant was preferentially bound. Another example is paclitaxel, a microtubule-stabilizing agent that is widely used in cancer chemotherapy. Biochemical competitive […]
# (Shubhada Sharma, et al., Dissecting paclitaxel–microtubule association: quantitative assessment of the 2’-OH group. Biochemistry, 52, 2328-2336 (2013)). Paclitaxel sensitizes BG-1 ovarian cancer cells to radiation at a dose that was not cytotoxic and […]
# sensitizer: a flow cytometric study. Gynecol Oncol, 50, 89-93 (1993)).
# Like the Mi-2β silencing by shMi-2β (Supplementary Fig. 3C), we observed substantial increases in expressions of Mi-2β target genes, Cxcl9 and Cxcl10, to similar levels after treatment of B16F10 cells with Z36-MP5 at concentrations 5 μM to 100 μM (Fig. 5F).
# MP5 treatment would be sufficient for inhibiting Mi-2β in cells. Moreover, we observed a maintenance of blood concentration of 4 μM to 10 μM Z36-MP5 in rat for around 1 hour after the intraperitoneal injection at a dose of Z36-MP5 as low as 1 mg per kg […]
# Mi-2β mutation (H727A) = molecular target: T1, Mi-2β mutation (H727A) (Homo sapiens, UniProt Q14839, H727A); test: FRET-based nucleosome repositioning assay with mutant Mi-2β; type: biochemical; settings: ATP 1 mM, Z36-MP5 10 µM
# T1 construct: made in house
# Experimental: based nucleosome repositioning assays were performed with different concentrations of Mi-2β and a non-
# limiting ATP concentration (1 mM) for the indicated incubation time (n=3). c The ATP titration
# (concentrations ranging from 0.1 to 300 µM) was performed with the FRET-based nucleosome
# time. […] Values represent mean
# based nucleosome repositioning assays.
# 468 kinases = test: KINOMEscan screening (DiscoveRx); type: binding; settings: 1000 nM
# [3] = system: Pmel-1 T cells co cultured with tumor cells; test: Pmel-1 T-cell killing of tumor cells; type: cell-based, mouse
# Experimental: To test whether Z36-MP5 affects cell proliferation, cells were seeded into 96-well plates at a density of 1 × 10^3 cells/100 μl per well. CCK-8 was used to detect changes in proliferation ability after 3 days of treatment with Z36-MP5 (25 μM). To test whether Mi-2β expression in T cells or treatment of T cells with Z36-MP5 affects the ability of T cells to kill tumor cells, Mi-2β in Pmel-1 T cells was manipulated or Pmel-1 cells were exposed to Z36-MP5 (25 μM) for 24 hrs. The number of cells was quantified. One thousand Pmel-1 T cells were then co cultured with 1000 tumor cells for 24 hrs, and the number of tumor cells was counted.
# Supplementary Figure 8. In vitro assay for Mi-2β inhibitors. a The body weight changes of C57BL/6J mice treated with Z36-MP5 (30 mg/kg/day) for 2 weeks. Data are mean ± SEM (n=5). b H&E staining of tissues in C57BL/6J mice treated with or without Z36 -MP5 (30 mg/kg/day) for 2 weeks. […]
# The growth of tumor grafts was measured. n = 5. g Mice bearing B16F10 cell s were treated with MS177 (100 mg/kg, 5 days) and then Z36 -MP5 (30 mg/kg/day) or vehicles, accompanied with anti -PD-1 antibody […]
# T1 sequence (Q14839 whole entry H727A): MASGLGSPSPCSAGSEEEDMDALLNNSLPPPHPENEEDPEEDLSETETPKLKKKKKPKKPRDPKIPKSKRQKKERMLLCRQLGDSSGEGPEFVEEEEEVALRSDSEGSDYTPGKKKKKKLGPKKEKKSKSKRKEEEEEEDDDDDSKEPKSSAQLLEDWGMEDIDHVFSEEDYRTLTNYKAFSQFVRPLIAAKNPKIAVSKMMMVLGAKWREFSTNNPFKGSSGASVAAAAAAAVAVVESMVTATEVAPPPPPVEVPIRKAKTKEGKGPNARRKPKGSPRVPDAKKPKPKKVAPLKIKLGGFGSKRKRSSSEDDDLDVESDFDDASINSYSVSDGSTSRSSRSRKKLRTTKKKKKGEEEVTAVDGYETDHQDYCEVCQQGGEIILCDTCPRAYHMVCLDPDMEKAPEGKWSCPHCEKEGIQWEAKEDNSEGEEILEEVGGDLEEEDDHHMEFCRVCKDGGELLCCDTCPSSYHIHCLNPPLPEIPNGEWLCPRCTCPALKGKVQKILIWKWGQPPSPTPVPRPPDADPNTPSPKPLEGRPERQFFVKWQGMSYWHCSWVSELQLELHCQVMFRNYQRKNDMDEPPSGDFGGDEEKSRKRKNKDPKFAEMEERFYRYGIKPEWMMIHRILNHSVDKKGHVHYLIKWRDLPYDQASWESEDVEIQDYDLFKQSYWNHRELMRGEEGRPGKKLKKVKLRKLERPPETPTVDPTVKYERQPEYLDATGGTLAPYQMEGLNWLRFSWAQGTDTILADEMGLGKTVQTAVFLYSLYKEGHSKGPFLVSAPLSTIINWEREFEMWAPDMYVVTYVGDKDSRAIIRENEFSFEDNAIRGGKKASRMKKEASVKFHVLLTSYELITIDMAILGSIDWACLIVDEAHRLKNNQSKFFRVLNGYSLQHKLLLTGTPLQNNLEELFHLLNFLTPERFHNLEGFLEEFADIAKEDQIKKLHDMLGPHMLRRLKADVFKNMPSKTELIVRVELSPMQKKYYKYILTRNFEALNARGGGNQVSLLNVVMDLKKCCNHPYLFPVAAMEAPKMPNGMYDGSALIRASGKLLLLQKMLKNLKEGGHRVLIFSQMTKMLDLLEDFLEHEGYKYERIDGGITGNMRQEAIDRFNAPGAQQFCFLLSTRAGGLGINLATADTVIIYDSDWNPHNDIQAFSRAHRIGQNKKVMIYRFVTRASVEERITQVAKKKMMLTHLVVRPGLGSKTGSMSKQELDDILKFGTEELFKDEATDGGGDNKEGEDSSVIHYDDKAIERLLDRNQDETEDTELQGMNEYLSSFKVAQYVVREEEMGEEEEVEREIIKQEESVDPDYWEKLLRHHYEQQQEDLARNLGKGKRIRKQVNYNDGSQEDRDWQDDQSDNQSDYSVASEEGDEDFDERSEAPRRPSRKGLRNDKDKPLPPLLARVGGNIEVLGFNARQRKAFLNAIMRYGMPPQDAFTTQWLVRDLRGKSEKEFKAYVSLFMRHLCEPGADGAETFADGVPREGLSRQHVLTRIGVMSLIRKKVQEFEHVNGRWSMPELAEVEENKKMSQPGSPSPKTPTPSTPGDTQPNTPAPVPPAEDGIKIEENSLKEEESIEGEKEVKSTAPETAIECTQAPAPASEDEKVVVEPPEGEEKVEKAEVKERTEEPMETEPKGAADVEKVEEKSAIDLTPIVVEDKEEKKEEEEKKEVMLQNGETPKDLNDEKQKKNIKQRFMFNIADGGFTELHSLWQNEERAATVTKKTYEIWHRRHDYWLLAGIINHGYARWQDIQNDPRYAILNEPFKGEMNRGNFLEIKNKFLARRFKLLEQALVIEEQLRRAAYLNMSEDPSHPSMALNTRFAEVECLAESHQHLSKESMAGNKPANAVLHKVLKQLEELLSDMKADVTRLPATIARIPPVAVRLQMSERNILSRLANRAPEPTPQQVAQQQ
structure (smiles),measurement,setting,value
Cn1c(=O)[nH]c2ccc(-c3cccc(C(=O)NC4CCn5ccnc5C4)c3)cc21 (stereo not shown) [Z36-MP5],induction of ISGs compared with GSK126 or MS177,[1],more efficiently induced
same,treatment effect in mice treated with MS177 to inhibit EZH2,"B16F10 cell graft; B16F10 graft, MS177 100 mg/kg 5 days, then anti-PD-1 with Z36-MP5 or vehicle",No treatment effects were detected
same,effect on tumors generated from Mi-2β-null cells,B16F10 cell graft; Z36-MP5 30 mg/kg/day accompanied by anti-PD-1,No detectable inhibitory effect
same,estimated highest blood concentration in mice,[2],around 0.97 mM
same,sensitivity of Mi-2β H727A mutant to inhibitor,Mi-2β mutation (H727A),no longer sensitive; also recorded: histidine 727 of Mi-2β dependent
same,activity against 468 kinases,468 kinases,extremely high kinase selectivity; also recorded: not significantly active on any targets tested
same,killing potential of T cells,[3],not significantly inhibited
